Counter-ions that a name gives are not always drawn.
Experiments:
[1] = tested on: HT-144 melanoma line, SK-Mel-334.2 primary melanoma line; assay: Lung metastatic colonization by HT-144 and SK-Mel-334.2 cells in NOD scid mice; format: in vivo, human
Description: Melanoma cells used for in vivo metastasis assays were transduced with a stably expressed retroviral construct encoding a luciferase reporter gene (Ponomarev et al., 2004), allowing us to monitor the in vivo progression of melanoma cells by bioluminescence imaging. The following numbers of melanoma cells, resuspended in 100 μL of PBS, were injected intravenously via the tail-vein: 4×10^4 MeWo cells, 2.5×10^5 HT-144 cells, 2×10^5 SK-Mel-334.2 cells, 5×10^4B16F10 cells, and 1×10^5 YUMM cells. The MeWo, HT-144, and SK-Mel-334.2 cells were injected into 6-8 week-old sex-matched NOD scid mice, while the B16F10 and YUMM cells were injected into 6-8 week-old sex-matched C57BL/6 mice. In all experiments assessing at the effects of GW3965 on metastasis formation, mice were pre-treated on a control diet or a GW3965-supplemented diet (20 mg/kg) for 10 days. To assess the effect of GW3965 treatment on brain metastasis, 1×10^5 MeWo brain-metastatic derivatives were injected intracardially into athymic nude mice. Immediately following injection, mice were randomly assigned to a control diet or GW3965-supplemented diet (100 mg/kg). […]

[2] = tested on: MeWo human melanoma cells; assay: Subcutaneous MeWo tumor growth in immunocompromised mice; format: in vivo; conditions: oral, GW3965-supplemented diet
Description: Animals were palpated weekly for tumor formation, after which sizeable tumors were measured twice a week. Tumor volume was calculated as (small diameter)^2×(large diameter)/2.

[3] = tested on: MeWo human melanoma cells; assay: Tumor histochemistry (MECA-32, Ki-67, cleaved caspase-3) of MeWo tumors; format: in vivo; conditions: GW3965 diet 20 mg/kg, 35 days
From the text: Animals were intracardially perfused with PBS followed by 4% paraformaldehyde (PFA). Fixed lungs were embedded in paraffin and sectioned into 5-jam-thick increments. Macroscopic lung metastatic nodules were visualized by H&E staining. For analysis of tumor endothelial cell content, proliferation, and apoptosis, primary tumor paraffin-embedded sections were stained with antibodies against MECA-32 (Developmental Studies Hybridoma Bank, University of Iowa), KI-67 (ab15580, Abcam), and cleaved caspase-3 (9661, Cell Signaling), respectively.
Tumors were excised from mice and fixed in 4% paraformaldehyde at 4° C. for 48 hours. Then, tumors were paraffin-embedded and sectioned into 5-μm-thick increments. For endothelial cell content analysis in tumors, tumor sections were stained with a primary antibody against the mouse endothelial cell marker MECA-32 (Developmental Studies Hybridoma Bank, The University of Iowa, IA) and counterstained with DAPI nuclear stain. To determine tumor cell proliferation and apoptosis, tumor sections were stained with antibodies against the proliferative marker Ki-67 (Abcam, ab15580, Cambridge, Mass.) and the apoptotic marker cleaved caspase-3 (9661, Cell Signaling, Danvers, Mass.), respectively. Various Alexa Flour dye-conjugated secondary antibodies were used to detect primary antibodies. […] Endothelial cell content density and tumor proliferation rate were quantified by calculating the average percentage of MECA-32 or Ki-67 positively-staining area out of the total tumor area. Tumor apoptosis was measured by counting the number of cleaved caspase-3 expressing cells per given tumor area.

[4] = tested on: Tyr::CreER; B-RafV600E/+; Ptenlox/+ and Tyr::CreER; B-RafV600E/+; Ptenlox/lox mice; assay: Genetically-initiated model of melanoma progression; format: in vivo, mouse
Description: The Tyr::CreER; B-Raf^V600E/+; Pten^lox/+/Tyr::CreER; B—Raf^V600E/+; Pten^lox/lox conditional model of melanoma progression was previously established and characterized by Dankort et al. (2009). Briefly, melanoma in these mice was induced at 6 weeks of age by intraperitoneally injecting 4-HT (H6278, 70% isomer, Sigma-Aldrich, St Louis, Mo.) at 25 mg/kg administered in peanut oil on three consecutive days. The 4-HT stock solution was prepared by dissolving it in 100% EtOH at 50 mg/mL by heating at 45° C. for 5 min and mixing. Once dissolved, the stock 4-HT solution was then diluted by 10-fold in peanut oil, yielding a 5 mg/mL 4-HT working solution that was then injected into mice. After the first 4-HT injection, mice were blindedly assigned to receive either a control diet or a diet supplemented with GW3965 (100 mg/kg). Mice were examined three times a week for the presence and progression of melanoma lesions. At day 35, dorsal skin samples were harvested from control-treated and GW3965-treated mice, fixed in 4% PFA and photographed at 10×. The percentage of pigmented melanoma lesion area out of the total skin area was quantified using ImageJ. For survival analyses, mice were monitored daily for melanoma progression and euthanized according to a standard body condition score, taking into account initial signs of moribund state and discomfort associated with the progression of melanoma burden. Post-mortem, the lungs, brains, and salivary glands were harvested and examined for the presence of macroscopic melanoma lesions.

[5] = tested on: SK-Mel-239 vemurafenib-resistant clone cells; assay: SK-Mel-239 vemurafenib-resistant tumors in NOD Scid gamma mice; format: in vivo, human; conditions: GW3965 diet 100 mg/kg
[6] = tested on: MDA-468 human breast cancer cells; assay: MDA-468 breast cancer tumor growth in Nod Scid gamma mice; format: in vivo; conditions: GW3965-supplemented diet 75 mg/kg/day
Description: The mice were assigned to a control diet treatment or a GW3965-supplemented diet treatment (75 mg/kg/day) two days prior to injection of the cancer cells.

MeWo-LM2 cells = assay: Lung metastatic colonization by MeWo-LM2 cells in NOD-SCID mice; format: in vivo, human; conditions: cells pre-incubated with recombinant ApoE 100 μg/mL for 24 hours before i.v. injection
Description: After 8 hours, the transfection media was replaced with fresh media. After 48 hours, 1×10^5 cells were injected intravenously into NOD-SCID mice to assess lung metastatic colonization or through intracardiac injection into athymic nude mice to assess systemic metastasis. For cell invasion and endothelial recruitment in vitro assays, the cells were used 96 hours post-transfection.

| Compound | metastatic colonization ([1]; HT-144 melanoma line) | metastatic colonization ([1]; SK-Mel-334.2 primary melanoma line) | tumor growth inhibition [2] [%] | decrease in the number of actively proliferating tumor cells ([3]; Ki-67) [%] | reduction in the endothelial cell content of tumors ([3]; MECA-32) | number of apoptotic cells ([3]; cleaved caspase-3) | number of lymphatic metastases detected post-mortem ([4]; Ptenlox/lox mice, GW3965 100 mg/kg) | tumor progression ([4]; oral, GW3965 diet 100 mg/kg after melanoma initiation) | overall survival times ([4]; oral, GW3965 diet 100 mg/kg, Ptenlox/+ and Ptenlox/lox) | suppression of tumor growth [5] [%] | survival of mice bearing vemurafenib-resistant melanoma burden [5] | breast cancer tumor size [6] | suppression of metastatic colonization (MeWo-LM2 cells) |
| --- | --- | --- | --- | --- | --- | --- | --- | --- | --- | --- | --- | --- | --- |
| O=C(O)Cc1cccc(OCCCN(Cc2cccc(C(F)(F)F)c2Cl)CC(c2ccccc2)c2ccccc2)c1 [GW3965 2, 3-[3-[N-(2-Chloro-3-trifluoromethylbenzyl)-(2,2-diphenylethyl)amino]propyloxy] phenylacetic acid hydrochloride] | suppressed | suppressed | 70 | 23 | roughly 2 fold | without a change | decrease | attenuated | significantly extended | 72 | significantly prolonged | significant reduction |  |
| recombinant human ApoE: recombinant human ApoE3 (4696, BioVision) |  |  |  |  |  |  |  |  |  |  |  |  | over 300 fold |

Reference: patent publication US10945978B2, “Treatment and diagnosis of melanoma” (The Rockefeller University, priority 2012, dated 2021)
